Data on 20 compounds can be found in patent publication EP4624472A1, “DEGRADER INCLUDING NOVEL C-MET PROTEIN LIGAND AND PHARMACEUTICAL COMPOSITION INCLUDING SAME” (Innocure Therapeutics, Inc., priority 2022, dated 2024).

Like-named read-outs stand apart in the source and are kept apart here. Bounds are passed on as bounds.

Assay [1] relates to EBC-1. The assay is described as follows: In vitro cell viability assay (cancer cell anti-proliferative activity), EBC-1. Format: cell-based, human. Particulars: EBC-1 cells, treated 72 hours, absorbance at 450 nm, read-out: In vitro cell viability assay (IC50, nM) EBC-1. As to the method:
(§1) The c-MET overexpressing human gastric cancer cell lines MKN45 and SNU638 were cultured in RPMI medium with 10% fetal bovine serum, penicillin (100 U/ml), and streptomycin ([…]), and the c-MET exon 14 skipping mutant human gastric cancer cell line Hs746T was cultured in DMEM media. The c-MET overexpressing human lung cancer cell line EBC-1 was cultured in MEM media with the addition of 10% fetal bovine serum, penicillin (100U/ml), and streptomycin ([…]). The normal cell line WI-38 derived from human lung tissue was cultured in EMEM medium with the addition of 10% fetal bovine serum, penicillin (100U/ml), and streptomycin ([…]).
(§2) The compound synthesized in accordance with the present invention was prepared with a raw material solution of 10 mM dissolved in DMSO (dimethyl sulfoxide), and was sequentially diluted and processed.
(§3) In order to evaluate the inhibitory activity on cell growth, cells were dispensed in a 96-well plate at a concentration of 5,000 cells/well and then treated with the compound of the present invention prepared at various concentrations for 72 hours. The absorbance measurement at 450 nm was calculated using the GraphicPad Prism 8.0 software. The IC50 value (concentration of the compound achieving 50% cytostatic inhibition) is the average value of the measured results. […]

In assay [2] the test system is SNU-638. The assay is described as follows: In vitro cell viability assay (cancer cell anti-proliferative activity), SNU-638. Format: cell-based, human. As to conditions: SNU-638 cells, treated 72 hours, absorbance at 450 nm, read-out: In vitro cell viability assay (IC50, nM) SNU-638. The procedure: as §1, §2, §3

As a reminder, the IC50 is the point on the concentration scale where inhibition reaches its midpoint. Regarding “3-(6-oxo-1-(3-(5-(piperazine-1-yl)pyrimidine-2-yl)benzyl)-1,6-dihydropyridazine-3-yl)benzonitrile [Example C-6]”, the IC50 in assay [1] and in assay [2] was not above 100 nM in each case.

Take `CN1CCN(Cc2ccc(-c3cnc(N4CCO[C@H](Cn5nnc6nc(-c7cnn(C)c7)cnc65)C4)nc3)cc2)CC1` [ABN401, reference compound]: the IC50 in assay [1] (Homo sapiens) and in assay [2] (Homo sapiens) was not above 100 nM in each case.

For `Cn1cc(-c2cnc3c(nnn3C[C@@H]3CN(c4ncc(N5CCN(CC6CN(C(=O)OC(C)(C)C)C6)CC5)cn4)CCO3)n2)cn1` [Example B-1, tert-butyl(S)-3-((4-(2-(2-((5-(1-methyl-1H-pyrazole-4-yl)-1H-[1,2,3]triazolo[4,5-b]pyrazine-1-yl)methyl)morpholino)pyrimidine-5-il)ppiperazine-1-il)methyl)azetidine-1-carboxylate], the IC50 in assay [1] (Homo sapiens) and in assay [2] (Homo sapiens) was not above 100 nM throughout.

`Cn1cc(-c2cnc3c(nnn3C[C@@H]3CN(c4ncc(N5CCN(CC6CNC6)CC5)cn4)CCO3)n2)cn1` [Example B-2]: the IC50 in assay [1] (Homo sapiens) and in assay [2] (Homo sapiens) was not above 100 nM each time.

As for `CN1CC(CN2CCN(c3cnc(N4CCO[C@H](Cn5nnc6nc(-c7cnn(C)c7)cnc65)C4)nc3)CC2)C1` [Example B-3, (S)-2-((5-(1-methyl-1H-pyrazole-4-yl)-1H-[1,2,3]triazolo[4,5-b]pyrazine-1-yl)methyl)-4-(5-(4-((1-methylazetidine-3-yl)methyl)piperazine-1-il)pyrimidine-2-yl)morpholine], the IC50 in assay [1] (Homo sapiens) and in assay [2] (Homo sapiens) was not above 100 nM each time.

With `Cn1cc(-c2cnc3c(nnn3C[C@@H]3CN(c4ncc(N5CC(CN6CCN(C(=O)OCc7ccccc7)CC6)C5)cn4)CCO3)n2)cn1` [Example B-4], the IC50 in assay [1] (Homo sapiens) and in assay [2] (Homo sapiens) was not above 100 nM throughout.

Take `Cn1cc(-c2cnc3c(nnn3C[C@@H]3CN(c4ncc(N5CC(CN6CCNCC6)C5)cn4)CCO3)n2)cn1` [Example B-5, (S)-2-((5-(1-methyl-1H-pyrazole-4-yl)-1H-[1,2,3]triazolo[4,5-b]pyrazine-1-yl)methyl)-4-(5-(3-(piperazine-1-ylmethyl)azetidine-1-il)pyrimidine-2-yl)morpholine]: the IC50 in assay [1] (Homo sapiens) and in assay [2] (Homo sapiens) was not above 100 nM in each case.

Consider `Cn1cc(-c2cnc3c(nnn3C[C@@H]3CN(c4ncc(N5CC(COCc6ccccc6)C5)cn4)CCO3)n2)cn1` [Example B-6, (S)-4-(5-(3-((benzyloxy)methyl)azetidine-1-il)pyrimidine-2-yl)-2-((5-(1-methyl-1H-pyrazole-4-yl)-1H-[1,2,3]triazolo[4,5-b]pyrazine-1-yl)methyl)morpholine], for which the IC50 in assay [1] (Homo sapiens) and in assay [2] (Homo sapiens) was not above 100 nM each time.

For the compound `Cn1cc(-c2cnc3c(nnn3C[C@@H]3CN(c4ncc(N5CC(CO)C5)cn4)CCO3)n2)cn1` [Example B-7, (S)-(1-(2-(2-((5-(1-methyl-1H-pyrazole-4-yl)-1H-[1,2,3]triazolo[4,5-b]pyrazine-1-yl)methyl)morpholino)pyrimidine-5-il)azetidine-3-yl)methanol], the concentration for half-maximal inhibition (IC50) in assay [1] (Homo sapiens) and in assay [2] (Homo sapiens) was not above 100 nM throughout.

For `Cc1ccc(S(=O)(=O)OCC2CN(c3cnc(N4CCO[C@H](Cn5nnc6nc(-c7cnn(C)c7)cnc65)C4)nc3)C2)cc1` [Example B-8, (S)-(1-(2-(2-((5-(1-methyl-1H-pyrazole-4-yl)-1H-[1,2,3]triazolo[4,5-b]pyrazine-1-yl)methyl)morpholino)pyrimidine-5-il)azetidine-3-yl)methyl 4-methylbenzenesulfonate], the IC50 in assay [1] (Homo sapiens) and in assay [2] (Homo sapiens) was not above 100 nM throughout.

For the compound `Cn1cc(-c2cnc3c(nnn3C[C@@H]3CN(c4ncc(N5CC(CN6CCN(C(=O)OC(C)(C)C)CC6)C5)cn4)CCO3)n2)cn1` [Example B-9], the IC50 in assay [1] (Homo sapiens) and in assay [2] (Homo sapiens) was not above 100 nM in each case.

Regarding `CN1CCN(CC2CN(c3cnc(N4CCO[C@H](Cn5nnc6nc(-c7cnn(C)c7)cnc65)C4)nc3)C2)CC1` [Example B-10, (S)-2-((5-(1-methyl-1H-pyrazole-4-yl)-1H-[1,2,3]triazolo[4,5-b]pyrazin-1-yl)methyl)-4-(5-(3-((4-methylpiperazine-1-yl)methyl)azetidine-1-il)pyrimidine-2-yl)morpholine], the IC50 in assay [1] (Homo sapiens) and in assay [2] (Homo sapiens) was not above 100 nM each time.

As for `COc1ccc(COCC2CN(c3cnc(N4CCO[C@H](Cn5nnc6nc(-c7cnn(C)c7)cnc65)C4)nc3)C2)cc1` [Example B-11, (S)-4-(5-(3-(((4-methoxybenzyl)oxy)methyl)azetidine-1-il)pyrimidine-2-yl)-2-((5-(1-methyl-1H-pyrazole-4-yl)-1H-[1,2,3]triazolo[4,5-b]pyrazine-1-yl)methyl)morpholine], the IC50 in assay [1] (Homo sapiens) and in assay [2] (Homo sapiens) was not above 100 nM throughout.

With `CC(C)(C)OC(=O)Nc1ccc(COCC2CN(c3cnc(N4CCO[C@H](Cn5nnc6nc(-c7cn[nH]c7)cnc65)C4)nc3)C2)cc1` [Example B-12, tert-butyl(S)-(4-(((1-(2-(2-((5-(1H-pyrazole-4-yl)-1H-[1,2,3]triazolo[4,5-b]pyrazine-1-yl)methyl)morpholino)pyrimidine-5-il)azetidine-3-il)methoxy)methyl)phenyl)carbamate], the IC50 in assay [1] and in assay [2] was not above 1000 nM each time.

On to `Cn1cc(-c2cnc3c(nnn3C[C@@H]3CN(c4ncc(N5CC(COCc6ccc(NC(=O)OC(C)(C)C)nc6)C5)cn4)CCO3)n2)cn1` [Example B-13], for which the half-maximal inhibitory concentration (IC50) in assay [1] (Homo sapiens) and in assay [2] (Homo sapiens) was not above 1000 nM throughout.

As for `CC(C)(C)OC(=O)N1CCO[C@@H](COc2cnc(-c3cccc(Cn4nc(-c5cccc(C#N)c5)ccc4=O)c3)nc2)C1` [Example C-1, tert-butyl(2R)-2-(((2-(3-((3-(3-cyanophenyl)-6-oxopyridazin-1(6H)-yl)methyl)phenyl)pyrimidine-5-yl)oxy)methyl)methyl-4-carboxylate], the half-maximal inhibitory concentration (IC50) in assay [1] (Homo sapiens) and in assay [2] (Homo sapiens) was not above 100 nM in each case.

Turning to `N#Cc1cccc(-c2ccc(=O)n(Cc3cccc(-c4ncc(OC[C@@H]5CNCCO5)cn4)c3)n2)c1` [Example C-2, (S)-3-(1-(3-(5-(morpholine-2-ylmethoxy)pyrimidine-2-yl)benzyl)-6-oxo-1,6-dihydropyridazine-3-yl)benzonitrile], the IC50 in assay [1] (Homo sapiens) and in assay [2] (Homo sapiens) was not above 100 nM each time.

As to `CC(C)(C)OC(=O)N1CCN(CCOc2cnc(-c3cccc(Cn4nc(-c5cccc(C#N)c5)ccc4=O)c3)nc2)CC1` [Example C-3], the IC50 in assay [1] (Homo sapiens) and in assay [2] (Homo sapiens) was not above 100 nM throughout.

For `N#Cc1cccc(-c2ccc(=O)n(Cc3cccc(-c4ncc(OCCN5CCNCC5)cn4)c3)n2)c1` [Example C-4, 3-(6-oxo-1-(3-(5-(2-(piperazine-1-yl)ethoxy)pyrimidine-2-yl)benzyl)-1,6-dihydropyridazine-3-yl)benzonitrile], the IC50 in assay [1] (Homo sapiens) and in assay [2] (Homo sapiens) was not above 100 nM throughout.

Turning to `CC(C)(C)OC(=O)N1CCN(c2cnc(-c3cccc(Cn4nc(-c5cccc(C#N)c5)ccc4=O)c3)nc2)CC1` [Example C-5], the IC50 in assay [1] and in assay [2] was not above 100 nM in each case.
